Assay results: patent US10106542B2, “Substituted 6,7-dihydropyrazolo[1,5-a]pyrazines as negative allosteric modulators of mGluR2 receptors” (Janssen Pharmaceutica NV, priority 2013, dated 2018)
Blank lines part the entries; values can stand above or below the compound they belong to.

Tests used:
[1] = system: rats; assay: Reversal of the effect of the mGluR2 PAM JNJ-42153605 on scopolamine-induced hyperlocomotion; format: in vivo; conditions: Rattus norvegicus, 1 h, test compound 60 min before recording, criterion total distance >1500 cm
Procedure: 2) Reversal of the Effect of the mGluR2 PAM JNJ-42153605 on Scopolamine-Induced Hyperlocomotion Apparatus
Motor activity was measured in microprocessor-based motor activity arenas (closed gray PVC cylinders with a height of 39 cm and a diameter of 31 cm). Each arena was placed on an infrared LED (8×8 LEDs) lit box (white PVC squared box; 40×40 cm^2; height 12.5 cm. An infrared-sensitive tube camera and a white light source were mounted to the ceiling above the observation chamber to track the animal. The total distance traveled (cm) was recorded and analyzed using the Noldus Ethovision XT Video Tracking System (Version 7.0.418; Noldus, Wageningen, The Netherlands). The intensity of the light within the activity cages (measured in the centre at the level of the floor) ranged between 4 and 8 LUX.
The rats were pretreated with test compound or vehicle at 60 min before the start of the activity recordings and placed into individual cages. The rats were challenged with JNJ-42153605 (3-(cyclopropylmethyl)-7-(4-phenylpiperidin-1-yl)-8-(trifluoromethyl)[1,2,4]triazolo[4,3-a]pyridine; WO2010/130424; Cid et al. J. Med. Chem. 2012, 55, 8770-8789) (20 mg/kg, i.v.) 30 min before the start of the activity recording combined with scopolamine (0.16 mg/kg, i.v.) just before the start of the activity measurements Immediately after the injection of scopolamine, the rats were placed into the activity monitors and total distance travelled over the first 30 min was measured.
Animals receiving the combination of JNJ-42153605 and scopolamine (n=433) almost always travelled a distance of less than 1500 cm (<1500 cm) (only 2.5% of the control rats travelled a distance of more than 1500 cm (>1500 cm)). On the other hand, animals challenged with scopolamine alone (n=215) always travelled a total distance of more than 1500 cm (>1500 cm) and almost always (in 95.8% of the rats) a distance of more than 4400 cm (>4400 cm). […] For reversal of the inhibitory effect of JNJ-42153605 on the scopolamine-induced hyperlocomotion, two all-or-none criteria were adopted: (1) reversal: total distance >1500 cm; (2) normalization: total distance >4400 cm.

[2] = target: T1, human mGlu2 receptor (Homo sapiens, UniProt Q14416); assay: [35S]GTPγS binding assay (mGluR2 negative allosteric modulation); format: biochemical; conditions: for IC50: membranes from CHO cells transfected with human mGlu2 receptor, glutamate 60 μM, pIC50 = −log IC50 (M), read-out: GTPγS - hmGluR2 anGT pIC50 (converted); for Emax: read-out: GTPγS - hmGluR2 anGT Emax
T1 construct: expressed in transfected cells; host or cells: CHO cells (membrane preparation)
Procedure, shortened: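 Membranes from butyrate-stimulated CHO cells expressing human mGlu2; 7 μg protein in HEPES pH 7.4, 100 mM NaCl, 3 mM MgCl2, 10 μM GDP, 10 μg/ml saponin. Compound tested against EC80-equivalent glutamate; 0.1 nM [35S]GTPγS, 30 min, 30 °C; filtration, scintillation counting. Data as % of control glutamate response.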

[3] = relative maximal effect: maximal % inhibition relative to the control glutamate response

T1 sequence (Q14416 19-872): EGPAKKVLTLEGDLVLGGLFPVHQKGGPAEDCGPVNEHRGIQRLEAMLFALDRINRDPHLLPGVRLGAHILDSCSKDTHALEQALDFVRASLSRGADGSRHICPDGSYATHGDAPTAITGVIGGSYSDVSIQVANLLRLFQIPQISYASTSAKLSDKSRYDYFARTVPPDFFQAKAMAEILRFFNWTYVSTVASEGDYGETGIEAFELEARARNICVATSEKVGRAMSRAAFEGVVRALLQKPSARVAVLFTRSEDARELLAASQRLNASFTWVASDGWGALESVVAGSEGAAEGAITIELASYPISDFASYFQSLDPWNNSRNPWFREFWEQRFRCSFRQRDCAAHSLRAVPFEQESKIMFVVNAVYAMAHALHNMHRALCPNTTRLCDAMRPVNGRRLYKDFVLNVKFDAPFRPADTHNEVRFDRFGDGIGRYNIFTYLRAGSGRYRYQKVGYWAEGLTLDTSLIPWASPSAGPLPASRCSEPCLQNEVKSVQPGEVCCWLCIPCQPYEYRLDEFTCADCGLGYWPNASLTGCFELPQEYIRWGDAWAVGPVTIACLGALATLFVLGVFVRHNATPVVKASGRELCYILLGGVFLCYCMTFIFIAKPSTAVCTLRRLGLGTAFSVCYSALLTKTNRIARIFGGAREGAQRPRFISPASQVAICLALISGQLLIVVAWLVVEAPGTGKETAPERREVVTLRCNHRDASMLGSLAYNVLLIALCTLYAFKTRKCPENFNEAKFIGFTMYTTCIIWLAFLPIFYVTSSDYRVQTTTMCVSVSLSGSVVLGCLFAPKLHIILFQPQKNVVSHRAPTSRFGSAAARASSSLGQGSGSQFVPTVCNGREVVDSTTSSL

melting point: 67.8 °C
IC50 [2]: 8.32e-09 M
Emax [2, 3]: 106%
SMILES: CNc1cc(-c2cnn3c2C(=O)N(c2ccc(C(F)(F)F)c(F)c2)C[C@@H]3C)ccn1 [compound 182]
ED50 ([1]; Route PO): 1.99 mg/kg

IC50 [2]: 6.31e-09 M
Emax [2, 3]: 116%
SMILES: CNc1cc(-c2cnn3c2C(=O)N(c2ccc(C(F)(F)F)c(C)c2)C[C@@H]3C)ccn1 [compound 251]
ED50 ([1]; Route PO): > 0.63 mg/kg

IC50 [2]: 7.24e-09 M
Emax [2, 3]: 105%
SMILES: Cc1cc(-c2cnn3c2C(=O)N(c2ccc(SC(F)(F)F)cc2)C[C@@H]3C)ccn1 [compound 236]
ED50 ([1]; Route PO): > 2.5 mg/kg

IC50 [2]: 1.29e-08 M
Emax [2, 3]: 110%
SMILES: CNc1cc(-c2cnn3c2C(=O)N(c2ccc(C(F)(F)F)cc2)C[C@@H]3C)cc(OC)n1 [compound 242]
ED50 ([1]; Route PO): > 2.5 mg/kg

IC50 [2]: 1.51e-09 M
Emax [2, 3]: 107%
SMILES: CCNc1cc(-c2cnn3c2C(=O)N(c2ccc(C(F)(F)F)c(Cl)c2)C[C@@H]3C)ccn1 [compound 255]
ED50 ([1]; Route PO): 0.79 mg/kg

IC50 [2]: 3.63e-09 M
Emax [2, 3]: 108%
SMILES: CCNc1cc(-c2cnn3c2C(=O)N(c2ccc(Cl)c(Cl)c2)C[C@@H]3C)ccn1 [compound 257]
ED50 ([1]; Route PO): ≥ 2.5 mg/kg

melting point: 179.2 °C
IC50 [2]: 1.02e-08 M
Emax [2, 3]: 102%
SMILES: CCOc1nc(N2C[C@H](C)n3ncc(-c4cc(C)nc(C)c4)c3C2=O)ccc1C(F)(F)F [compound 205]

IC50 [2]: 3.63e-09 M
Emax [2, 3]: 108%
SMILES: CCNc1cc(-c2cnn3c2C(=O)N(c2ccc(C(F)(F)F)c(C)c2)C[C@@H]3C)ccn1 [compound 256]
ED50 ([1]; Route PO): ≥ 2.5 mg/kg

melting point: 60.7 °C
IC50 [2]: 1.07e-06 M
Emax [2, 3]: 109%
SMILES: CCOc1ccc(N2C[C@H](C)n3ncc(-c4ccnc(C)c4)c3C2=O)nc1F [compound 191]

melting point: 292.8 °C
IC50 [2]: 4.9e-09 M
Emax [2, 3]: 107%
SMILES: Cc1cc(-c2cnn3c2C(=O)N(c2cc(Cl)c(C(F)(F)F)cn2)C[C@@H]3C)ccn1 [compound 204, (7S)-5-[4-Chloro-5-(trifluoromethyl)-2-pyridyl]-7-methyl-3-(2-methyl-4-pyridyl)-6,7-dihydropyrazolo[1,5-a]pyrazin-4-one]

melting point: 131.3 °C
IC50 [2]: 2.24e-08 M
Emax [2, 3]: 107%
SMILES: Cc1cc(N2C[C@H](C)n3ncc(-c4ccnc(NC(C)C)c4)c3C2=O)ccc1C(F)(F)F [compound 267]

More lines, now with the values behind:

SMILES: Cc1cc(-c2cnn3c2C(=O)N(c2cccc(Cl)c2)C[C@@H]3C)ccn1 [compound 16]
ED50 ([1]; Route SC): ≥ 10 mg/kg
IC50 [2]: 5.13e-08 M
Emax [2, 3]: 102%

SMILES: C[C@H]1CN(c2ccc(C(F)(F)F)cc2)C(=O)c2c(-c3ccnc(N(C)C)c3)cnn21 [compound 166]
melting point: 99.8 °C
ED50 ([1]; Route PO): 0.5 mg/kg
ED50 ([1]; Route SC): ≥ 10 mg/kg
IC50 [2]: 2.51e-09 M
Emax [2, 3]: 102%

SMILES: C[C@H]1CN(c2ccc(C(F)(F)F)cc2)C(=O)c2c(-c3ccnc(C#N)c3)cnn21 [compound 127, 4-[(7S)-7-Methyl-4-oxo-5-[4-(trifluoromethyl)phenyl]-6,7-dihydropyrazolo[1,5-a]pyrazin-3-yl]pyridine-2-carbonitrile]
melting point: 155.1 °C
ED50 ([1]; Route PO): 1.99 mg/kg
IC50 [2]: 2.75e-08 M
Emax [2, 3]: 103%

SMILES: COc1cc(-c2cnn3c2C(=O)N(c2ccc(Cl)c(Cl)c2)C[C@@H]3C)ccn1 [compound 142]
ED50 ([1]; Route PO): 1.99 mg/kg
IC50 [2]: 6.61e-09 M
Emax [2, 3]: 105%

SMILES: Cc1cc(-c2cnn3c2C(=O)N(c2ccc(C(F)(F)F)c(Cl)c2)C[C@@H]3C)cc(C)n1 [compound 43]
ED50 ([1]; Route PO): 1.26 mg/kg
IC50 [2]: 2.88e-09 M
Emax [2, 3]: 107%

SMILES: Cc1cc(-c2cnn3c2C(=O)N(c2ccc(C(F)(F)F)c(C#N)c2)C[C@@H]3C)ccn1 [compound 13]
melting point: 128.9 °C
ED50 ([1]; Route PO): 7.94 mg/kg
IC50 [2]: 2.95e-08 M
Emax [2, 3]: 103%

SMILES: Cc1cc(-c2cnn3c2C(=O)N(c2ccc(Cl)c(Cl)c2)C[C@@H]3C)ccn1 [compound 6]
ED50 ([1]; Route PO): 0.8 mg/kg
IC50 [2]: 5.01e-09 M
Emax [2, 3]: 106%

SMILES: CCOc1cc(N2C[C@H](C)n3ncc(-c4ccnc(C)c4)c3C2=O)ccc1Cl [compound 18]
melting point: 98.5 °C
ED50 ([1]; Route PO): ≥ 10 mg/kg
IC50 [2]: 5.25e-08 M
Emax [2, 3]: 102%

SMILES: COc1cc(-c2cnn3c2C(=O)N(c2ccc(C(F)(F)F)c(OC)c2)C[C@@H]3C)ccn1 [compound 180]
melting point: 76.8 °C
ED50 ([1]; Route PO): ≥ 2.5 mg/kg
IC50 [2]: 1.32e-08 M
Emax [2, 3]: 106%

SMILES: COc1cc(N2C[C@H](C)n3ncc(-c4ccnc(C)c4)c3C2=O)ccc1C(F)(F)F [compound 12]
ED50 ([1]; Route PO): 1.25 mg/kg
IC50 [2]: 1.95e-08 M
Emax [2, 3]: 104%

SMILES: Cc1cc(-c2cnn3c2C(=O)N(c2ccc(C(F)(F)F)cc2)C[C@@H]3C)cc(C)n1 [compound 14]
ED50 ([1]; Route PO): 5 mg/kg
IC50 [2]: 2.4e-08 M
Emax [2, 3]: 104%

SMILES: Cc1cc(-c2cnn3c2C(=O)N(c2ccc(C(F)(F)F)c(Cl)c2)C[C@@H]3C)ccn1 [compound 3]
ED50 ([1]; Route PO): 1.99 mg/kg
IC50 [2]: 1.78e-09 M
Emax [2, 3]: 106%

SMILES: Cc1cc(-c2cnn3c2C(=O)N(c2ccc(Cl)c(Cl)c2)C[C@@H]3C)cc(C)n1 [compound 47]
ED50 ([1]; Route PO): 1.99 mg/kg
IC50 [2]: 6.46e-09 M
Emax [2, 3]: 105%

SMILES: CNc1cc(-c2cnn3c2C(=O)N(c2ccc(C(F)(F)F)c(Cl)c2)C[C@@H]3C)ccn1 [compound 103]
ED50 ([1]; Route PO): 0.96 mg/kg

SMILES: Cc1cc(-c2cnn3c2C(=O)N(c2ccc(C(F)(F)F)c(F)c2)C[C@@H]3C)ccn1 [compound 10]
ED50 ([1]; Route PO): 0.79 mg/kg
IC50 [2]: 1.17e-08 M
Emax [2, 3]: 104%

SMILES: Cc1cc(-c2cnn3c2C(=O)N(c2ccc(OC(F)F)cc2)C[C@@H]3C)ccn1 [compound 27]
melting point: 137.1 °C
IC50 [2]: 1.38e-07 M
Emax [2, 3]: 104%

SMILES: COc1cc(-c2cnn3c2C(=O)N(c2ccc(C(F)(F)F)c(Cl)c2)C[C@@H]3C)ccn1 [compound 104]
ED50 ([1]; Route PO): ≥ 2.5 mg/kg
IC50 [2]: 3.72e-09 M
Emax [2, 3]: 108%

SMILES: Cc1cc(-c2cnn3c2C(=O)N(c2ccc(Cl)c(C(F)(F)F)c2)C[C@@H]3C)cc(C)n1 [compound 54]
melting point: 205.1 °C
IC50 [2]: 1.05e-08 M
Emax [2, 3]: 105%

SMILES: Cc1cc(-c2cnn3c2C(=O)N(c2ccc(C(F)(F)F)c(C#N)c2)C[C@@H]3C)cc(C)n1 [compound 59]
melting point: 214.1 °C
IC50 [2]: 3.55e-08 M
Emax [2, 3]: 98%

SMILES: CN(C)c1cc(-c2cnn3c2C(=O)N(c2ccc(Cl)c(Cl)c2)CC3CF)ccn1 (single isomer, unassigned) [compound 91]
melting point: 86 °C
IC50 [2]: 5.62e-08 M
GTPγS - hmGluR2 anGT Emax [2, 3]: 103%

SMILES: C[C@H]1CN(c2ccc(Cl)c(Cl)c2)C(=O)c2c(-c3ccncc3)cnn21 [compound 57]
melting point: 153.2 °C
IC50 [2]: 1.29e-08 M
Emax [2, 3]: 104%

SMILES: C[C@H]1CN(c2ccc(C(F)(F)F)cc2)C(=O)c2c(-c3ccc(N)nc3)cnn21 [compound 37]
melting point: 254 °C
IC50 [2]: 9.77e-07 M
Emax [2, 3]: 99%

SMILES: Cc1cc(-c2cnn3c2C(=O)N(c2cccc(C(F)(F)F)c2)C[C@@H]3C)ccn1 [compound 23]
melting point: 139.2 °C
IC50 [2]: 1.1e-07 M
Emax [2, 3]: 104%

SMILES: Cc1cc(-c2cnn3c2C(=O)N(c2ccc(Cl)cc2F)C[C@@H]3C)ccn1 [compound 30]
melting point: 78.6 °C
IC50 [2]: 2.57e-07 M
Emax [2, 3]: 104%

SMILES: Cc1cc(-c2cnn3c2C(=O)N(c2ccc(C(F)(F)F)cc2)C[C@@H]3C)cnc1C [compound 29]
melting point: 140.8 °C
IC50 [2]: 2.29e-07 M
Emax [2, 3]: 102%
